# Laboratory results from US20250302948A1, “DR5 Agonist and IAP Antagonist Combination Therapy” (Inhibrx Biosciences, Inc., priority 2022, published 2025).
# Assays:
# CAL-51 = assay: Cytotoxicity on breast cancer cell lines, assay similar to Example 3 (Example 4); conditions: Homo sapiens
# Experimental: (§4) Day 1—Cell Seeding. […] Two duplicate plates were set up for day 0 reading (T0) and for reading at the end point (T48).
# (§5) To generate a 10× working dilution plate of the small molecules, a 1:100 dilution was performed from the 1000× plate into the appropriate media.
# (§6) Day 2—Compound Treatment. […] The plates were then incubated in a 37° C. humidity-controlled tissue culture incubator (5% CO2).
# (§7) 20 μL culture medium containing 1% DMSO and 50 μL CellTiter-Glo® Reagent was added to each well of the TO plates and the contents mixed, plate was incubated at room temperature for 30 min, and read on an En Vision Multi Label Reader.
# (§8) Day 4—Viability Measurements. 50 μL CellTiter-Glo® Reagent was added to each well of the T48 plates and the contents mixed, plate was incubated at room temperature for 30 min, and read on an EnVision Multi Label Reader. The formula for calculating percent survival is: % survival=(LumTest article−LumMedium control)/(LumNone treated−LumMedium control)×100%. Percent cytotoxicity was calculated by subtracting the % survival from 100.
# HCC2935 = assay: Cytotoxicity on lung cancer cell lines, assay similar to Example 1 (Example 4); conditions: Homo sapiens
# Experimental: (§9) Day 1-Cell Seeding. Monolayer cultures of each cell line were harvested for compound screening as detailed below. Culture medium was aspirated, and the cells were washed once with PBS. Accutase was added and flasks were incubated at 37° C. until cells became detached. An equal volume of complete medium was added to quench the Accutase, and the cells were then pipetted up and down several times to generate a homogenous single cell suspension. The density and viability of cells was determined by Trypan Blue using a TC20 Automated Cell Counter. Experimental cells were resuspended to a concentration of 0.17×10^6/mL in EMEM/10% FBS/Anti-Anti media (complete EMEM) and seeded in the inner wells of 384-well luminescence plates at 15 μL/well (2,500/well final). Each cell line was plated in duplicate on separate plates. […]
# (§10) Day 4—Viability Measurements. […] Any visible bubbles were removed with 100% ethanol vapor, then luminescence (RLU) was read on the Spectra Max M5e plate reader, using the 384-well opaque plate setting and SoftMaxPro v5.4 software with an integration time of 50 milliseconds. To determine the effect of test articles on cell viability, raw RLU values were exported to Excel and percent survival was calculated as a percentage of vehicle control (0.2% DMSO in EMEM), where the vehicle control is set at 100%. […]
# A549 = assay: as above; conditions: Homo sapiens
# Experimental: as §9, §10
# HCC1187 = assay: Cytotoxicity on breast cancer cell lines, assay similar to Example 3 (Example 4); conditions: Homo sapiens
# Experimental: (§11) Day 1—Cell Seeding. Monolayer cultures of each cancer cell line (see Table 7) were harvested during the logarithmic growth period. The density and viability of cells was determined by Trypan Blue using a Vi cell counter, cells were diluted in the appropriate growth media (see Table 7) and 90 μL cell suspensions were added to 96-well plates for compound screening as detailed below. Two duplicate plates were set up for day 0 reading (T0) and for reading at the end point (T48).
# as §5, §6, §7
# (§12) Day 4—Viability Measurements. 50 μL CellTiter-Glo® Reagent was added to each well of the T48 plates and the contents mixed, plate was incubated at room temperature for 30 min, and read on an EnVision Multi Label Reader. […] Percent cytotoxicity was calculated by subtracting the % survival from 100.
# HS 578T = assay: as above; conditions: Homo sapiens
# Experimental: as §4, §5, §6, §7, §8
# H-EMC-SS = assay: Cytotoxicity on chondrosarcoma cell lines, assay similar to Example 1 (Example 4)
# Experimental: as §9, §10
# DU4475 = assay: Cytotoxicity on breast cancer cell lines, assay similar to Example 3 (Example 4); conditions: Homo sapiens, DU-4475
# Experimental: as §11, §5, §6, §7, §12
# NCI-H23 = assay: Cytotoxicity on lung cancer cell lines, assay similar to Example 1 (Example 4); conditions: Homo sapiens
# Experimental: as §9, §10
# SW620 = assay: CellTiter-Glo cell viability, 48 h (Examples 1, 2); type: cell-based; conditions: Homo sapiens, SW-620
# From the text: (§1) Test Article Preparation for INBRX-109.
# (§2) Day 2—Test and Control Article Addition.
# (§3) Day 4—Viability Measurements. […] Data was graphed in GraphPad Prism 7.
# OUMS-27 = assay: Cytotoxicity on chondrosarcoma cell lines, assay similar to Example 1 (Example 4)
# Experimental: as §9, §10
# CAL-120 = assay: Cytotoxicity on breast cancer cell lines, assay similar to Example 3 (Example 4); conditions: Homo sapiens
# Experimental: (§13) Two duplicate plates were set up for day 0 reading (T0) and for reading at the end point (T48).
# as §5, §6, §7, §8
# SW1353 = assay: Cytotoxicity on chondrosarcoma cell lines, assay similar to Example 1 (Example 4); conditions: Homo sapiens
# Experimental: as §9, §10
# Panc-1 = assay: Cytotoxicity on pancreatic cancer cell lines, assay similar to Example 1 (Example 4); conditions: Homo sapiens
# Experimental: as §9
# (§14) Day 4—Viability Measurements. […] Any visible bubbles were removed with 100% ethanol vapor, then luminescence (RLU) was read on the Spectra Max M5e plate reader, using the 384-well opaque plate setting and SoftMaxPro v5.4 software with an integration time of 50 milliseconds. To determine the effect of test articles on cell viability, raw RLU values were exported to Excel and percent survival was calculated as a percentage of vehicle control (0.2% DMSO in EMEM), where the vehicle control is set at 100%.
# CAL-78 = assay: Cytotoxicity on chondrosarcoma cell lines, assay similar to Example 1 (Example 4)
# Experimental: as §9, §10
# BT-20 = assay: Cytotoxicity on breast cancer cell lines, assay similar to Example 3 (Example 4); conditions: Homo sapiens
# Experimental: as §13, §5, §6, §7, §8
# SNU-1 = assay: Cytotoxicity on gastric cancer cell lines, assay similar to Example 1 (Example 4); conditions: Homo sapiens, SNU1
# Experimental: as §9, §14
# HCC1937 = assay: Cytotoxicity on breast cancer cell lines, assay similar to Example 3 (Example 4); conditions: Homo sapiens
# Experimental: as §13, §5, §6, §7, §8
# NCI-H460 = assay: Cytotoxicity on lung cancer cell lines, assay similar to Example 1 (Example 4); conditions: Homo sapiens
# Experimental: as §9, §10
# SNU-C2B = assay: CellTiter-Glo cell viability, 48 h (Example 1); type: cell-based; conditions: Homo sapiens
# From the text: as §1, §2, §3
# HT-29 = assay: CellTiter-Glo cell viability, 48 h (Example 1); type: cell-based; conditions: Homo sapiens
# From the text: as §1, §2, §3
# LS411N = assay: CellTiter-Glo cell viability, 48 h (Example 1); type: cell-based; conditions: Homo sapiens, LS-411N
# From the text: as §1, §2, §3
# HCC1395 = assay: Cytotoxicity on breast cancer cell lines, assay similar to Example 3 (Example 4); conditions: Homo sapiens
# Experimental: as §4, §5, §6, §7, §8
# BT-549 = assay: as above; conditions: Homo sapiens
# Experimental: as §13, §5, §6, §7, §8
# NCI-N87 = assay: Cytotoxicity on gastric cancer cell lines, assay similar to Example 1 (Example 4); conditions: Homo sapiens
# Experimental: as §9, §14
# NCI-H2452 = assay: Cytotoxicity on lung cancer cell lines, assay similar to Example 1 (Example 4); conditions: Homo sapiens
# Experimental: as §9, §10
# HCC70 = assay: Cytotoxicity on breast cancer cell lines, assay similar to Example 3 (Example 4); conditions: Homo sapiens
# Experimental: as §11, §5, §6, §7, §12
# SW1990 = assay: Cytotoxicity on pancreatic cancer cell lines, assay similar to Example 1 (Example 4); conditions: Homo sapiens
# Experimental: as §9, §10
# HCC1806 = assay: Cytotoxicity on breast cancer cell lines, assay similar to Example 3 (Example 4); conditions: Homo sapiens
# Experimental: as §11, §5, §6, §7, §12
# MX = assay: as above
# Experimental: as §13, §5, §6, §7, §8
# SNU-5 = assay: Cytotoxicity on gastric cancer cell lines, assay similar to Example 1 (Example 4); conditions: Homo sapiens
# Experimental: as §9, §14
# AsPC-1 = assay: Cytotoxicity on pancreatic cancer cell lines, assay similar to Example 1 (Example 4); conditions: Homo sapiens, ASPC1
# Experimental: as §9, §14
# SUM159PT = assay: Cytotoxicity on breast cancer cell lines, assay similar to Example 3 (Example 4); conditions: Homo sapiens, SUM-159-PT
# Experimental: as §11, §5, §6, §7, §12
# MIA-PaCa-2 = assay: Cytotoxicity on pancreatic cancer cell lines, assay similar to Example 1 (Example 4); conditions: Homo sapiens
# Experimental: as §9, §10
structure (smiles),measurement,setting,value
"CC[C@H](NC(=O)[C@H](C)NC)C(=O)N1C[C@@H](O)C[C@H]1Cc1c(-c2[nH]c3cc(F)ccc3c2C[C@@H]2C[C@H](O)CN2C(=O)[C@H](CC)NC(=O)[C@H](C)NC)[nH]c2cc(F)ccc12 [Birinapant, birinapant]",cytotoxicity at 3.16 µM,CAL-51,2.35%
same,cytotoxicity at 2 µM,HCC2935,13.9%
same,cytotoxicity at 2 µM,A549,11.3%
same,cytotoxicity at 3.16 µM,HCC1187,36%
same,cytotoxicity at 3.16 µM,HS 578T,12.7%
same,cytotoxicity at 2 µM,H-EMC-SS,31.1%
same,cytotoxicity at 3.16 µM,DU4475,14.3%
same,cytotoxicity at 2 µM,NCI-H23,9.3%
same,cytotoxicity at 5 µM,SW620,11.7%
same,cytotoxicity at 2 µM,OUMS-27,-0.15%
same,cytotoxicity at 3.16 µM,CAL-120,2.75%
same,cytotoxicity at 2 µM,SW1353,0.1%
same,cytotoxicity at 2 µM,Panc-1,11.7%
same,cytotoxicity at 2 µM,CAL-78,14%
same,cytotoxicity at 3.16 µM,BT-20,6.51%
same,cytotoxicity at 2 µM,SNU-1,7.62%
same,cytotoxicity at 3.16 µM,HCC1937,-2.77%
same,cytotoxicity at 2 µM,NCI-H460,6.55%
same,cytotoxicity at 5 µM,SNU-C2B,71.1%
same,cytotoxicity at 5 µM,HT-29,20.4%
same,cytotoxicity at 5 µM,LS411N,14.3%
same,cytotoxicity at 3.16 µM,HCC1395,8.93%
same,cytotoxicity at 3.16 µM,BT-549,6.85%
same,cytotoxicity at 2 µM,NCI-N87,1.82%
same,cytotoxicity at 2 µM,NCI-H2452,6.11%
same,cytotoxicity at 3.16 µM,HCC70,34%
same,cytotoxicity at 2 µM,SW1990,10.4%
same,cytotoxicity at 3.16 µM,HCC1806,5.17%
same,cytotoxicity at 3.16 µM,MX,-7.11%
same,cytotoxicity at 2 µM,SNU-5,59.6%
same,cytotoxicity at 2 µM,AsPC-1,9.46%
same,cytotoxicity at 3.16 µM,SUM159PT,-1.7%
same,cytotoxicity at 2 µM,MIA-PaCa-2,9.17%
